Test results as given in publication PMC10638401, “Mannich-type modifications of (−)-cannabidiol and (−)-cannabigerol leading to new, bioactive derivatives” (Scientific Reports, 2023).
≈ marks a conversion by molar mass, not a printed value.

Legend:
[1] = system: Enterococcus faecalis 29 212; assay: MIC, broth micro dilution; conditions: Enterococcus faecalis, 29212
Description: (§3) According to CLSI guideline the Minimal Inhibitory Concentrations (MICs) of the prepared compounds were determined with the broth micro dilution method. After an overnight growth on 5% bovine blood agar plates at 35 °C bacterial strains were suspended in physiological saline in order to reach the density of 0.5 McFarland for inoculation. Stock solutions containing different concentrations of the substances were prepared in DMSO and H2O (1:1). These were twofold serially diluted from 256 to 0.5 mg/l in Mueller–Hinton broth, and 100 ml of each dilution was inoculated with 10 ml of each bacterial suspension.

[2] = system: MRSA (Methicillin Resistant Staphylococcus aureus); assay: MIC, broth micro dilution; conditions: Staphylococcus aureus
MCF7 cells = assay: Antiproliferative MTT assay, 72 h; type: cell-based, human; conditions: Homo sapiens, MCF7, 30 μM, read-out: inhibition of the proliferation
Description: (§1) Human adherent cancer cell lines A2780, MDA-MB-231 and MCF-7 were obtained from ECACC (European Collection of Cell Cultures, Salisbury, UK; Cat. No.93112519, 92020424, 86012803, respectively). SiHa cell line was obtained from ATCC (American Tissue Culture Collection, Manassas, Virginia, USA; Cat. No. HTB-35). All cell lines used for antiproliferative assay were maintained in Eagle's Minimum Essential Medium (EMEM) completed with 10% fetal bovine serum (FBS), 1% non-essential amino acid solution, and 1% penicillin, streptomycin, and amphotericin B mixture under cell culture conditions described before. All the utilized media and supplements were purchased from Lonza Group Ltd. (Basel, Switzerland).
(§2) The antiproliferative actions of the prepared molecules were determined by the same assay against a panel of adherent human cancer cell lines containing cervical (SiHa), ovarian (A2780) and breast (MCF7, MDA-MB-231) cell lines. Cells were plated onto 96-well microplates (5000 cells/well) and after an overnight incubation treated with two concentrations (10 or 30 μM) of the test substances for 72 h under cell culture conditions. Subsequently, MTT (5 mg/ml in phosphate buffer) was added to the wells, followed by incubation for 4 h. The supernatant was removed, the formazan crystals were then dissolved in 100 µl DMSO. Finally, absorbance values were determined by a microplate reader (BMG Labtech, Ortenberg, Germany) at 545 nm. Two independent measurements were performed with five parallel wells. Results were expressed as percentage of cell proliferation inhibition compared to non-treated control samples regarded as 0%.

A2780 cells = assay: Antiproliferative MTT assay, 72 h; type: cell-based, human; conditions: Homo sapiens, A2780, 30 μM, read-out: inhibition of the proliferation
Description: as §1, §2

Pseudomonas aeruginosa = assay: Antibacterial effect, broth micro dilution; type: cell-based
[3] = system: Enterococcus faecalis 15 376 VanA; assay: MIC, broth micro dilution; conditions: Enterococcus faecalis, 15376VANA
Description: as §3

Escherichia coli = assay: Antibacterial effect, broth micro dilution; type: cell-based
[4] = system: Klebsiella pneumoniae carbapenemase-producing bacteria; assay: Antibacterial effect, broth micro dilution
Description: as §3

[5] = system: Staphylococcus epidermidis mecA; assay: MIC, broth micro dilution; conditions: Staphylococcus epidermidis
SZ95 sebocytes = assay: Viability MTT-assay on sebocytes, 48 h; type: cell-based, human; conditions: 30 μM
Description: Human immortalized SZ95 sebocytes, originated from human facial sebaceous glands[50] were provided by prof. Christos C. Zouboulis, and were cultured in Sebomed® Basal Medium (Cat. No. F8205; Sigma-Aldrich) supplemented with 10% FBS (Gibco-Thermo Fisher Scientific), 1 mM CaCl2 (Cat. No. C7902; Sigma-Aldrich), 5 ng/ml human epidermal growth factor (Cat. No. E9644; Sigma-Aldrich), and MycoZap™ Plus-CL (1:500; Lonza). The medium was changed every other day, and cells were subcultured at 60–70% confluence.
The viability of HaCaT keratinocytes and SZ95 sebocytes was determined by MTT-assay[58] (Cat. No. M5655; Sigma-Aldrich) measuring the conversion of the tetrazolium salt to formazan by mitochondrial dehydrogenases. Cells were plated in 96-well plates (20,000 cells/well), and were treated as indicated. Cells were then incubated with 0.5 mg/ml MTT reagent for 3 h, and concentration of formazan crystals (as an indicator of number of viable cells) was determined colorimetrically at 565 nm by using FlexStation 3 multi-mode microplate reader (Molecular Devices). Results were expressed as percentage of vehicle-treated control regarded as 100%.

[6] = system: MSSA (Methicillin Sensitive Staphylococcus aureus); assay: MIC, broth micro dilution; conditions: Staphylococcus aureus
Bacillus subtilis = assay: MIC, broth micro dilution
Description: as §3

in vitro = conditions: African green monkey
[7] = system: multidrug-resistant Acinetobacter baumannii; assay: Antibacterial effect, broth micro dilution
Description: as §3

[8] = system: Staphylococcus epidermidis biofilm forming; assay: MIC, broth micro dilution; conditions: Staphylococcus epidermidis
SARS-CoV-2 = SARS-CoV-2 cytopathic effect (CPE) inhibition assay in Vero E6 cells (XTT); type: cell-based; conditions: Severe acute respiratory syndrome coronavirus 2, Vero C1008, 72 h; Vero E6 cells, 3 days post-infection, XTT
Description: CBD and CBG derivatives were further tested for their ability to inhibit SARS-CoV-2 replication in Vero E6 cells. Initially, the inhibition of virus-induced cytopathic effect was measured by addition of twofold serial dilutions of each derivative to the cells, followed by the infection with SARS-CoV-2 and determination of the cell viability 3 days post-infection by XTT assay. Concurrently, the cytotoxicity of each compound was assessed from identical dilutions in uninfected Vero E6 cells. To confirm anti-SARS-CoV-2 activity in the CPE inhibition assay, selected compounds were tested in immunofluorescence assay, where inhibition of SARS-CoV-2 replication was monitored as reduction in nucleoprotein expression using fluorescence microscope. […] Among the CBG derivatives, we can find quite cytotoxic and non-cytotoxic derivatives as well.
For CPE-based assay, two-fold fold serial dilutions of compounds from 100 µM were added in triplicate in a 384-well plate with 5000 Vero E6 cells in DMEM medium with 2% FBS, 100 U of penicillin/ml and 100 µg of streptomycin/ml (all Merck). After 1 h incubation SARS-CoV-2 (strain hCoV-19/Czech Republic/NRL_6632_2/2020) was added at multiplicity of infection […]. Following three days incubation at 37 °C in 5% CO2 the cell viability was determined by addition of XTT solution (Sigma-Aldrich) for 4 h and the absorbance was measured using EnVision plate reader (Perkin Elmer). Drug concentrations required to reduce viral cytopathic effect by 50% (EC50) were calculated using nonlinear regression from plots of percentage cell viability versus log10 drug concentration using GraphPad Prism (version 9.0.0, GraphPad Software, LLC). For immunofluorescence assay, two-fold fold serial dilutions of compounds from 100 µM were added in triplicate in 96-well plate with 15,000 Vero E6 cells plated day before in the same medium as above. After 1 h incubation, SARS-CoV-2 was added at multiplicity of infection 0.05 IU/cell. After three days of incubation, cells were fixed with 4% paraformaldehyde, permeabilized with 0.2% Triton X100 (both Merck), washed, incubated with anti-SARS-CoV-2antibody (mouse monoclonal antibody detecting SARS-CoV-2 nucleoprotein) for 2 h at room temperature. Followed by 1.5 h incubation with Cy3-labeled donkey anti-mouse IgG (Jackson ImmunoResearch Europe) and documented using fluorescence microscope with camera (Olympus). Images were processed in ImageJ software (NIH) and compound concentrations required to reduce fluorescence by 50% (EC50s) were calculated from plots of percentage of fluorescent cells versus log10 drug concentration using nonlinear regression analysis as above. Cytotoxicity was evaluated by incubating with the same two-fold serial dilutions of each compound as above with Vero E6 cells in 384-well plate.

[9] = system: Enterococcus faecalis 51299 VanB; assay: MIC, broth micro dilution; conditions: Enterococcus faecalis, 51299VANB
Description: as §3

## CCCCCc1cc(O)c(C/C=C(\C)CCC=C(C)C)c(O)c1 [Compound 2, (−)-cannabigerol]
[1]
  MIC: 4 µg/mL (≈ 12.6 µM)
[2]
  MIC: 4 µg/mL (≈ 12.6 µM)
MCF7 cells
  inhibition at 30 µM: > 90%
A2780 cells
  inhibition at 30 µM: > 90%
Pseudomonas aeruginosa
  antibacterial effect (no effect up to): > 256 µg/mL
[3]
  MIC: 4 µg/mL (≈ 12.6 µM)
Escherichia coli
  antibacterial effect (no effect up to): > 256 µg/mL
[4]
  antibacterial effect (no effect up to): > 256 µg/mL
[5]
  MIC: 8 µg/mL (≈ 25.3 µM)
SZ95 sebocytes
  viability (MTT signal intensity): tended to suppress viability
[6]
  MIC: 4 µg/mL (≈ 12.6 µM)
Bacillus subtilis
  MIC: 2 µg/mL (≈ 6.32 µM)
In vitro
  CC50: ~11 µM
[7]
  antibacterial effect (no effect up to): > 256 µg/mL
[8]
  MIC: 8 µg/mL (≈ 25.3 µM)
SARS-CoV-2
  EC50: > 11 µM
[9]
  MIC: 4 µg/mL (≈ 12.6 µM)
